Data as given in patent US8129381B2, “Caspase inhibitors and uses thereof” (Vertex Pharmaceuticals Incorporated, priority 2002, dated 2012).

Key:
[1] = target: T1, recombinant, purified human Caspase-1 (Homo sapiens, UniProt P29466); assay: Enzyme assay, caspase inhibition (fluorogenic substrate cleavage); assay type: biochemical; details: second order rate constant of enzyme inactivation; substrate Acetyl-Tyr-Val-Ala-Asp-amino-4-methylcoumarin
T1 sequence (P29466 120-297 limits assumed): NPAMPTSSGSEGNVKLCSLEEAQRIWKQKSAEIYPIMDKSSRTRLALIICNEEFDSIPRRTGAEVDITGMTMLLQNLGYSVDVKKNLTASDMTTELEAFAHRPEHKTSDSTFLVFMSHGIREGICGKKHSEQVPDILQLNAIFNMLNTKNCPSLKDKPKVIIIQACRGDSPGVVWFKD
T1 sequence (P29466 317-404 limits assumed): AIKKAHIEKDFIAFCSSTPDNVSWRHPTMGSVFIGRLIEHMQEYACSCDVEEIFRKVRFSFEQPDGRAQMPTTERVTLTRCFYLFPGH
From the text: (§1) The assays for caspase inhibition are based on the cleavage of a fluorogenic substrate by recombinant, purified human Caspases −1, −3, −7 or −8. The assays are run in essentially the same way as those reported by Garcia-Calvo et al., J. Biol. Chem. 273, 32608-32613 (1998), using a substrate specific for each enzyme. The substrate for Caspase-1 is Acetyl-Tyr-Val-Ala-Asp-amino-4-methylcoumarin and the substrate for Caspases −3, −7 and −8 is Acetyl-Asp-Glu-Val-Asp-amino-4-methylcoumarin both as disclosed in Garcia-Calvo et al., J. Biol. Chem. 273, 32608-32613 (1998).
(§2) The observed rate of enzyme inactivation at a particular inhibitor concentration, kobs, is computed by direct fits of the data to the equation derived by Thornberry et al., Biochemistry, 33, […] (1994) using a nonlinear least-squares analysis computer program (PRISM 2.0; GraphPad software). To obtain the second order rate constant, kinact, kobs values are plotted against their respective inhibitor concentrations and kinact values are subsequently calculated by computerized linear regression.
(§3) Compounds with kinact(M^−1s^−1)>500000 are listed as “A”. Compounds with kinact(M^−1s^−1) between 100000 and 500000 are listed as “B”. Compounds with kinact(M^−1s^−1)<100000 are listed as “C”.

[2] = target: T2, recombinant, purified human Caspase-3 (Homo sapiens, UniProt P42574); assay: as above; assay type: biochemical; details: second order rate constant of enzyme inactivation; substrate Acetyl-Asp-Glu-Val-Asp-amino-4-methylcoumarin
T2 sequence (P42574 29-175 limits assumed): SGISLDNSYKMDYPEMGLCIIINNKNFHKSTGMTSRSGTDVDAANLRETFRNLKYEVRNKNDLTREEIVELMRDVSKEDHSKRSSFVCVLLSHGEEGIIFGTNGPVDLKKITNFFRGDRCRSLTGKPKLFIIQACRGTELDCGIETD
T2 sequence (P42574 176-277 limits assumed): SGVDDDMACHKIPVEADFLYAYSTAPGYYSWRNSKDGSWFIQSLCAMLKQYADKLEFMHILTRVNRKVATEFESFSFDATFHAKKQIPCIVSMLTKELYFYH
From the text: as §1, §2, §3

[3] = target: recombinant, purified human Caspase-8 (Homo sapiens, UniProt Q14790); assay: as above; assay type: biochemical; details: second order rate constant of enzyme inactivation; substrate Acetyl-Asp-Glu-Val-Asp-amino-4-methylcoumarin
From the text: as §1, §2, §3

[4] = tested on: IL-1β secretion from human whole blood; assay: Inhibition of IL-1β secretion from whole blood; assay type: cell-based; details: human whole blood diluted 1:2 in PBS, LPS 5 ng/ml, 18 hours, ELISA
Description: Human blood is freshly drawn from healthy donors and diluted 1:2 in PBS. To 500 μl of diluted blood […] of prediluted test compound in RPMI medium and […] LPS (5 ng/ml final concentration on the plate) are added (LPS, Serotype 0111:B4, Sigma L3012). After stimulation for 18 hours supernatants are collected and assayed for IL-1β levels using the appropriate ELISA kit (R&D systems).
Compounds with an IC50>10 μM are listed as “A”. Compounds with an IC50 between 1 μM and 10 uM are listed as “B”. Compounds with an IC50<1 μM are listed as “C”.

rat cortical neurons = assay: Hypoxia-induced apoptosis of rat cortical neurons; assay type: cell-based, Wistar rat; details: Cortical neurone, oxygen-depleted serum-free medium, Cell Death Detection ELISA (DNA fragmentation)
Description: Cortical neurons are dissociated from Wistar rat embryos (E17) by a modification of the procedure of Rogers et al., Brain Res. Bulletin, 44:131 (1998). Briefly, cerebral cortices are isolated aseptically from 15-20 Wistar rat embryos. A cell suspension is prepared by mincing the cerebral cortices and digesting them with papain. Cells are washed with ovomucoid enzyme inhibitor and DNaseI and plated onto Poly-D lysine coated plates in high glucose DMEM containing 10% heat-inactivated fetal calf serum, L-glutamine, penicillin and streptomycin. The yield of neurons is […] per embryo and they are 80-90% viable as assessed by Trypan blue exclusion.
The neurons are cultured in complete medium at 37° C. in a normal atmosphere for 48 hours prior to the hypoxia experiments. For hypoxia, the normal cell medium is replaced by oxygen-depleted serum-free medium. Cells are incubated in an atmosphere of 95% N2/5% CO2 for various lengths of time. Compounds are dissolved in DMSO at 100 mM then diluted in medium and added to the culture from time=0. The level of apoptosis is measured using a Cell Death Detection ELISA kit (Roche) which detects DNA fragmentation. Plates are read at 405 nm. Controls included cells cultured in aerobic conditions in serum-containing medium (+serum) and cells cultured in aerobic conditions in serum-deprived medium (−serum).
Compounds with an IC50>0.5 μM are listed as “A”. Compounds with an IC50 between 0.1 μM and 0.5 uM are listed as “B”. Compounds with an IC50<0.1 μM are listed as “C”.

Sequence of recombinant, purified human Caspase-8 (Q14790 217-374 limits assumed): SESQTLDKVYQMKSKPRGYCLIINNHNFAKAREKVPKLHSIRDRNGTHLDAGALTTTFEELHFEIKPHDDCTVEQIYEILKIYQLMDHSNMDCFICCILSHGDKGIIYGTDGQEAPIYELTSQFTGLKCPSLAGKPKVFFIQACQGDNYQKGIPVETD
Sequence of recombinant, purified human Caspase-8 (Q14790 385-479 limits assumed): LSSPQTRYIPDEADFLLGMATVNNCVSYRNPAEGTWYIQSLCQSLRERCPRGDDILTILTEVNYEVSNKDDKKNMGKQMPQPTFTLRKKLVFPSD

Row | SMILES | kinact Caspase-1 [1] | kinact Caspase-3 [2] | kinact Caspase-8 [3] | IC50 [4] | IC50 (rat cortical neurons)
1 | CC[C@@H](C(=O)NC(CC(=O)O)C(=O)CF)n1cnc2ccc(Oc3ccc(Cl)cc3Cl)cc2c1=O (stereo partly drawn) [Compound 15, 3-{(2S)-2-[6-(2,4-Dichloro-phenoxy)-4-oxo-4H-quinazolin-3-yl]-butyrylamino}-5-fluoro-4-oxo-pentanoic acid] | B (Compounds with kinact(M^−1s^−1) between 100000 and 500000 are listed as “B”) | B (Compounds with kinact(M^−1s^−1) between 100000 and 500000 are listed as “B”) | A (Compounds with kinact(M^−1s^−1)>500000 are listed as “A”) | 1000 to 10000 nM | 100 to 500 nM
2 | CCCSc1ccc2ncn([C@@H](CC)C(=O)NC(CC(=O)O)C(=O)CF)c(=O)c2c1 (stereo partly drawn) [Compound 22, 5-Fluoro-4-oxo-3-[(2S)-2-(4-oxo-6-propylsulfanyl-4H-quinazolin-3-yl)-butyrylamino]-pentanoic acid] | A (Compounds with kinact(M^−1s^−1)>500000 are listed as “A”) | A (Compounds with kinact(M^−1s^−1)>500000 are listed as “A”) | A (Compounds with kinact(M^−1s^−1)>500000 are listed as “A”) | < 1000 nM | > 500 nM
3 | CC[C@@H](C(=O)NC(CC(=O)O)C(=O)CF)n1ccc2cc(Cl)ccc2c1=O (mixture of isomers) [Compound 3, (S)-3-[2-(6-chloro-1-oxo-1H-isoquinolin-2-yl)-butyrylamino]-5-fluoro-4-oxo-pentanoic acid] | B (Compounds with kinact(M^−1s^−1) between 100000 and 500000 are listed as “B”) | B (Compounds with kinact(M^−1s^−1) between 100000 and 500000 are listed as “B”) | C (Compounds with kinact(M^−1s^−1)<100000 are listed as “C”) | 1000 to 10000 nM | 100 to 500 nM
4 | CC[C@@H](C(=O)N[C@@H](CC(=O)O)C(=O)COc1c(F)c(F)cc(F)c1F)n1ccc2ccc(C(F)(F)F)cc2c1=O [Compound 19, (S,S)-3-[2-(7-trifluoromethyl-1-oxo-1H-isoquinolin-2-yl)-butyrylamino]-4-oxo-5-(2,3,5,6-tetrafluoro-phenoxy)-pentanoic acid] | A (Compounds with kinact(M^−1s^−1)>500000 are listed as “A”) | A (Compounds with kinact(M^−1s^−1)>500000 are listed as “A”) | C (Compounds with kinact(M^−1s^−1)<100000 are listed as “C”) | 1000 to 10000 nM | < 100 nM
5 | CC[C@@H](C(=O)NC(CC(=O)O)C(=O)CF)n1ccc2ccc(Cl)cc2c1=O (mixture of isomers) [Compound 1, (S)-3-[2-(7-chloro-1-oxo-1H-isoquinolin-2-yl)-butyrylamino]-5-fluoro-4-oxo-pentanoic acid] | A (Compounds with kinact(M^−1s^−1)>500000 are listed as “A”) | A (Compounds with kinact(M^−1s^−1)>500000 are listed as “A”) | B (Compounds with kinact(M^−1s^−1) between 100000 and 500000 are listed as “B”) | < 1000 nM | 100 to 500 nM
6 | CC[C@@H](C(=O)N[C@@H](CC(=O)O)C(=O)COc1c(F)c(F)cc(F)c1F)n1ccc2ccccc2c1=O [Compound 9, (S,S)-3-[2-(1-oxo-1H-isoquinolin-2-yl)-butyrylamino]-4-oxo-5-(2,3,5,6-tetrafluoro-phenoxy)-pentanoic acid] | B (Compounds with kinact(M^−1s^−1) between 100000 and 500000 are listed as “B”) | B (Compounds with kinact(M^−1s^−1) between 100000 and 500000 are listed as “B”) | C (Compounds with kinact(M^−1s^−1)<100000 are listed as “C”) | > 10000 nM | 100 to 500 nM
7 | CC[C@@H](C(=O)N[C@@H](CC(=O)O)C(=O)COc1c(F)cc(F)cc1F)n1cnc2ccccc2c1=O [Compound 7, (S,S)-4-Oxo-3-[2-(4-oxo-4H-quinazolin-3-yl)-butyrylamino]-5-(2,4,6-trifluoro-phenoxy)-pentanoic acid] | C (Compounds with kinact(M^−1s^−1)<100000 are listed as “C”) | B (Compounds with kinact(M^−1s^−1) between 100000 and 500000 are listed as “B”) | C (Compounds with kinact(M^−1s^−1)<100000 are listed as “C”) | > 10000 nM | > 500 nM
8 | CC[C@@H](C(=O)NC(CC(=O)O)C(=O)CF)n1cnc2ccc(Sc3cccc(F)c3)cc2c1=O (stereo partly drawn) [Compound 17, 5-Fluoro-3{(2S)-2[6-(3-fluoro-phenylsulfanyl)-4-oxo-4H-quinazolin-3-yl]-butyrylamino}-4-oxo-pentanoic acid] | A (Compounds with kinact(M^−1s^−1)>500000 are listed as “A”) | A (Compounds with kinact(M^−1s^−1)>500000 are listed as “A”) | A (Compounds with kinact(M^−1s^−1)>500000 are listed as “A”) | 1000 to 10000 nM | 100 to 500 nM
9 | CC[C@@H](C(=O)N[C@@H](CC(=O)O)C(=O)COc1c(F)c(F)cc(F)c1F)n1cnc2ccccc2c1=O [Compound 6, (S,S)-4-Oxo-3-[2-(4-oxo-4H-quinazolin-3-yl)-butyrylamino]-5-(2,3,5,6-tetrafluoro-phenoxy)pentanoic acid] | B (Compounds with kinact(M^−1s^−1) between 100000 and 500000 are listed as “B”) | A (Compounds with kinact(M^−1s^−1)>500000 are listed as “A”) | C (Compounds with kinact(M^−1s^−1)<100000 are listed as “C”) | 1000 to 10000 nM | 100 to 500 nM
10 | CC[C@@H](C(=O)N[C@@H](CC(=O)O)C(=O)COc1c(F)c(F)cc(F)c1F)n1cnc2ccc(Cl)cc2c1=O [Compound 5, (S,S)-3-[2-(6-Chloro-4-oxo-4H-quinazolin-3-yl)-butyrylamino]-4-oxo-5-(2,3,5,6-tetrafluoro-phenoxy)pentanoic acid] | A (Compounds with kinact(M^−1s^−1)>500000 are listed as “A”) | A (Compounds with kinact(M^−1s^−1)>500000 are listed as “A”) | B (Compounds with kinact(M^−1s^−1) between 100000 and 500000 are listed as “B”) | 1000 to 10000 nM | 100 to 500 nM
